Measurements: ChEMBL document CHEMBL4706724, “Novel Substituted Benzothiazole Compounds for Treating Huntington's Disease” (ACS Med Chem Lett, 2021)
pIC50: −log10 of the molar value.

Target: Huntingtin (Homo sapiens, UniProt P42858)
Test: Inhibition of Huntingtin protein (unknown origin) incubated for overnight in presence of MW1/MAB2166 monoclonal antibody by ELISA-based MSD electrochemiluminescence assay

Chain of Huntingtin (P42858 whole entry): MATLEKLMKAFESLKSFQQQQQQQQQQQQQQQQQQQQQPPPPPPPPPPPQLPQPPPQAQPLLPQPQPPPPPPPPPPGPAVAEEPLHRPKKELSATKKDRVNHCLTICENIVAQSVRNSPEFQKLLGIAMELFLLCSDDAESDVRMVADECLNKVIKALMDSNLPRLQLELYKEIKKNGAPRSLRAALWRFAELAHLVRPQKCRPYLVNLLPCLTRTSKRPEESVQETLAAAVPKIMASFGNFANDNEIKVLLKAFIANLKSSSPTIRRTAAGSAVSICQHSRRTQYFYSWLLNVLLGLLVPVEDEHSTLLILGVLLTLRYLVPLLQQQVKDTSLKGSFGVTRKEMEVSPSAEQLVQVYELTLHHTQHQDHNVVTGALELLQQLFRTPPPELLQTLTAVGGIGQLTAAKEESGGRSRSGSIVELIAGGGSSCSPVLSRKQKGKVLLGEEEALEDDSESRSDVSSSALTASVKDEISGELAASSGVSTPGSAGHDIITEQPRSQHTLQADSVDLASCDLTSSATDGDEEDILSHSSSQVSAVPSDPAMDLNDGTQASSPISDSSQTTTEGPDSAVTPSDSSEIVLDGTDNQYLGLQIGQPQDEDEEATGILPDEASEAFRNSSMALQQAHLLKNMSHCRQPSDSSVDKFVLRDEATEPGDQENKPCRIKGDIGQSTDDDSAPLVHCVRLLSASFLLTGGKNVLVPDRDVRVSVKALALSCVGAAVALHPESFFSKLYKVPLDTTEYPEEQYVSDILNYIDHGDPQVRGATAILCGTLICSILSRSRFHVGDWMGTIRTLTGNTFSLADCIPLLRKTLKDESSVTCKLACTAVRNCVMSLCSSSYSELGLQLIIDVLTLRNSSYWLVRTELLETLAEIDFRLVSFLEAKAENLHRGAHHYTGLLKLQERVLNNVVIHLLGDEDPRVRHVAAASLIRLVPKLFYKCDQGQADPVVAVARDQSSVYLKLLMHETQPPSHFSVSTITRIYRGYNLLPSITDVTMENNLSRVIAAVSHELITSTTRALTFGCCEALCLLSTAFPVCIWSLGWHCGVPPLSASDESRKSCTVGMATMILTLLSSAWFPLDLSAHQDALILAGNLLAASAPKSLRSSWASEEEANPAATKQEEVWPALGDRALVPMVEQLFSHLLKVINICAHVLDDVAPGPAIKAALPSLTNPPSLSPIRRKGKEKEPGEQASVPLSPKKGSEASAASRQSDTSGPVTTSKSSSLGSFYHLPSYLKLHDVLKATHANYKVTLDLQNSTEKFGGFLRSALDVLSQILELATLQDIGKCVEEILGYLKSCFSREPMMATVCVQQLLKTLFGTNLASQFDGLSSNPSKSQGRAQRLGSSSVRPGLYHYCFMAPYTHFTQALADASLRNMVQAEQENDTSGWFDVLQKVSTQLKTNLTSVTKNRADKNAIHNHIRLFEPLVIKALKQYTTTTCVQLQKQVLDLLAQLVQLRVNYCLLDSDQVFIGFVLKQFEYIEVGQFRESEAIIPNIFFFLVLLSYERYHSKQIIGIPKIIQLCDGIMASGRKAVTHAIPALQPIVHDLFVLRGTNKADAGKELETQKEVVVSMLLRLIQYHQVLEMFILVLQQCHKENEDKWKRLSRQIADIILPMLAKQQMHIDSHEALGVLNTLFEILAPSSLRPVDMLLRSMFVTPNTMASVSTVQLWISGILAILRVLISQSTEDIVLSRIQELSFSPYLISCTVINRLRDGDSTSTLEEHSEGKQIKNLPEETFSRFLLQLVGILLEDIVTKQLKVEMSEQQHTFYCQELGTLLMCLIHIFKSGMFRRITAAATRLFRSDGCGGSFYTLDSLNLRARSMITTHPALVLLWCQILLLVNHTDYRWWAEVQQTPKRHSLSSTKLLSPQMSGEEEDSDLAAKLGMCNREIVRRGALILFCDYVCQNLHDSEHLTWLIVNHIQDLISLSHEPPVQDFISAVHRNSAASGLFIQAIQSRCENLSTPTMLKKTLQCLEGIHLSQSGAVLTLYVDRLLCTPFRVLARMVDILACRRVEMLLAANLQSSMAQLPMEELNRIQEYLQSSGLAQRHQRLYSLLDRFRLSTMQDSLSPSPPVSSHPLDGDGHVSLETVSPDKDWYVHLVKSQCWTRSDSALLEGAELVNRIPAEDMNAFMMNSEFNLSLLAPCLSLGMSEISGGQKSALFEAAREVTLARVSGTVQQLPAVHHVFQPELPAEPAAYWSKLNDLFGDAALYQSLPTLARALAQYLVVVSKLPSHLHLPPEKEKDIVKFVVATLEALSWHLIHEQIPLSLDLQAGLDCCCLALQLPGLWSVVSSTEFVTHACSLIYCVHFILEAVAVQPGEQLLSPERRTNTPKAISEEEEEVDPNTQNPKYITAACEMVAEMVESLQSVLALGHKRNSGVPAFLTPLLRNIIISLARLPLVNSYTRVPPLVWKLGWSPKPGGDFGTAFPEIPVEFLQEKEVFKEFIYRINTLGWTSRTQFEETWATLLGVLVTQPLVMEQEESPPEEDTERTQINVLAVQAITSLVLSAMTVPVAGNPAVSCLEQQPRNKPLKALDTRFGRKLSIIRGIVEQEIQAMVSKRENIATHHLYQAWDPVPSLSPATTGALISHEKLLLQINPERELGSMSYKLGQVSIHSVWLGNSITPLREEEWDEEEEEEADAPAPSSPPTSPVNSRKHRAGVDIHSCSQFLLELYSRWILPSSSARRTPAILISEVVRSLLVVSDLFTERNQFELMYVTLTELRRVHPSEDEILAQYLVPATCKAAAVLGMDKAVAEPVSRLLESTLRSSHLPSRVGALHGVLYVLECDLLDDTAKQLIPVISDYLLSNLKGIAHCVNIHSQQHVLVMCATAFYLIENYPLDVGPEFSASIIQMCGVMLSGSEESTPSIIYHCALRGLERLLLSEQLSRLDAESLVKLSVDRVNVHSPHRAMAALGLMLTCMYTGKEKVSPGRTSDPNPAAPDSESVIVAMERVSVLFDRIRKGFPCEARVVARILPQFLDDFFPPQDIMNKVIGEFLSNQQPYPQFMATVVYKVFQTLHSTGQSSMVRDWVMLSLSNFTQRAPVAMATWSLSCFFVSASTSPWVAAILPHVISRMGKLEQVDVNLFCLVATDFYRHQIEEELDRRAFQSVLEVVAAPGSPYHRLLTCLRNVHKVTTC

SMILES	pIC50
Cc1nc2ccc(-c3cc(F)c4nc(C5CCNCC5)sc4c3)cc2o1	≥ 7.00
CN1CC2(C1)CN(c1nc3nnc(-c4ccc(-c5c[nH]nc5F)cc4O)cc3s1)C2	≥ 7.00
CN(c1nc2nnc(-c3ccc(-c4cn[nH]c4)cc3O)cc2s1)C1CCN(C2CC2)CC1	≥ 7.00
Oc1cc(-c2cn[nH]c2)ccc1-c1cc2sc(N3CCC34CCNCC4)nc2nn1	≥ 7.00
Cc1cn2nc(-c3cc(F)c4nc(OC5CCN(C)CC5)sc4c3)cc(C)c2n1	≥ 7.00
CN(c1nc2nnc(-c3ccc(-c4c[nH]nc4F)cc3O)cc2s1)C1CCNC1 (stereo unspecified)	≥ 7.00
